The test system of experiment [1] is G12 (RNA, aptamer) GGGCAACUCCAAGCUAGAUCUACCGGUAAUUUAGGUCAUUGAGUGAACAGACGUCAAGCUAGUUGGGCUACUGGCUUCUAAAACACAGGUAAAAUG
Nature of the experiment: fluorescence titration (intrinsic fluorescence). Conditions: K+ (20 mM KPO4), 100 mM NaCl, 10 mM MgCl2, pH 7.5.

The test system of experiment [2] is G12 long stem (SMFS construct) (RNA, aptamer) GGCAGGGCUGACGUAGUUGGAGUGGUGCGGGAGGGGAGUAAUCUCGGUCAUUGAGUGAACAGACGUCAAGCUAGUUGGGCUACUGGCUUCGAGAUUACUCCAGUGAGGGCAGAAUUCAGGUG
The experiment can be described thus: optical tweezers force ramp. To be noted: 250 mM KCl, 20 mM NaCl, 5 mM MgCl2; 40 mM HEPES pH 7.4, ~25 °C; intermediate I1 stabilised as in short stem.

The subject of experiment [3] is G12 short stem (SMFS construct) (RNA, aptamer) GGCAGGGCUGACGUAGUUGGAGUGGUGCGGGAGGCCGUGGUCAUUGAGUGAACAGACGUCAAGCUAGUUGGGCUACUGGCUUCACGGAGUGAGGGCAGAAUUCAGGUG
Nature of the experiment: optical tweezers force-jump, koff/kon. To be noted: 250 mM KCl, 20 mM NaCl, 5 mM MgCl2; 40 mM HEPES pH 7.4, ~25 °C; near-zero force; koff 0.0055 s-1, kon 0.42 s-1 µM-1.

In experiment [4] the test system is G12 no stem (SMFS construct) (RNA, aptamer) GGCAGGGCUGACGUAGUUGGAGUGGUGCGGGAGGGUCAUUGAGUGAACAGACGUCAAGCUAGUUGGGCUACUGGCUUAGUGAGGGCAGAAUUCAGGUG
The experiment can be described thus: optical tweezers passive mode, koff/kon. To be noted: 250 mM KCl, 20 mM NaCl, 5 mM MgCl2; 40 mM HEPES pH 7.4, ~25 °C; extrapolated to zero force; koff 6.0 s-1.

In experiment [5] the test system is G12 (RNA, aptamer) GGGCAACUCCAAGCUAGAUCUACCGGUAAUUUAGGUCAUUGAGUGAACAGACGUCAAGCUAGUUGGGCUACUGGCUUCUAAAACACAGGUAAAAUG
Nature of the experiment: fluorescence titration, Hill fit (ex 375 nm, em 530 nm). Conditions: 20 °C; 10 nM doxycycline.

Experiment [6] deals with tetracycline aptamer (SMFS construct) (RNA, aptamer) GGCAGGGCUGACGUAGUUGGAGUGGUGCGGGAGGAUAUAGUAAUCUGCAAAACAUACCAGAUGAAAAUCUGGAGAGGUGAAGAAUACGACCACCUGCAGAUUACUAUAUAGUGAGGGCAGAAUUCAGGUG
The experiment can be described thus: optical tweezers force ramp. Conditions: 250 mM KCl, 20 mM NaCl, 5 mM MgCl2; 40 mM HEPES pH 7.4, ~25 °C; P1 unfolding force increased.

The source of these data is paper PMC13434769 (2026).

On to `CN(C)[C@@H]1C(O)=C(C(N)=O)C(=O)[C@@]2(O)C(O)=C3C(=O)c4c(O)ccc(Cl)c4[C@@](C)(O)[C@H]3C[C@@H]12`, for which the binding entry in experiment [1] (5 nM 7-chloro-tetracycline) was “no”.

`CN(C)c1ccc(O)c2c1C[C@H]1C[C@H]3[C@H](N(C)C)C(O)=C(C(N)=O)C(=O)[C@@]3(O)C(O)=C1C2=O`: in experiment [1] (20 nM minocycline), the binding result is on record as “no”.

Take `CN(C)[C@@H]1C(O)=C(C(N)=O)C(=O)[C@@]2(O)C(O)=C3C(=O)c4c(O)cccc4C[C@H]3C[C@@H]12`: the binding entry in experiment [1] (5 nM sancycline) was “no”.

`Cc1c2c(c(O)c3c(O)cccc13)C(=O)[C@]1(O)C(O)=C(C(N)=O)C(=O)[C@@H](N(C)C)[C@@H]1C2`: the binding entry in experiment [1] (20 nM anhydrotetracycline) is reported as “no”.

For the compound `C[C@H]1c2cccc(O)c2C(=O)C2=C(O)[C@]3(O)C(=O)C(C(N)=O)=C(O)[C@@H](N(C)C)[C@@H]3[C@@H](O)[C@@H]21`, in experiment [2], the binding entry is “yes”. The results for the “KD,0” value in experiment [3] and in experiment [4] were 13.1 nM and 3800 nM, respectively. Further, the KD in experiment [5] stood at 2.8 nM.

For `CN(C)[C@@H]1C(=O)C(C(N)=O)=C(O)[C@@]2(O)C(=O)C3=C(O)c4c(O)cccc4[C@@](C)(O)[C@H]3C[C@@H]12`, the binding entry in experiment [6] is “yes”; in experiment [1] (1 nM tetracycline), “no”.
